Source: patent US20130116336A1, “TREATMENT OF ATAXIA TELANGIECTASIA” (priority 2010, published 2013)

How the values were obtained:
[1] = Animal study of alpha-tocotrienol quinone administration: pharmacokinetics in fasted dogs; details: dog, in vivo, po, 10 mg/kg
Protocol: (§1) The particular dosage appropriate for a specific patient is determined by dose titration. […] There is less than dose-proportionality since for an increase in doses of 2.4:6:10:20 there is only an increase in AUCs of 1.5:2.8:4.0:6.7. This lack of dose-proportionality may be due to decreased absorption since there is no change in t1/2 over dose range. Alpha-tocotrienol quinone tested in rats was safe when given acutely up to 2000 mg/kg.

[2] = test system: Ataxia-Telangiectasia fibroblast cells AG04405 (AT05); experiment: Ataxia-Telangiectasia cell line assay: rescue of BSO-stressed A-T fibroblasts, Calcein AM viability; type: cell-based; details: A-T fibroblasts AT05 stressed with 1 mM BSO for 48 h, Calcein AM fluorescence, tested three times, read-out: ED50, protection of ataxia telangiectasia cells
Protocol: Alpha-Tocotrienol quinone, was tested for its ability to rescue Ataxia-Telangiectasia fibroblast cells obtained from the Coriell Cell Repositories (Camden, N.J.; repository number AG04405 (AT05), when the cells were stressed by addition of L-buthionine-(S,R)-sulfoximine (BSO), as described in Jauslin et al., Hum. Mol. Genet. 11(24):3055 (2002), Jauslin et al., FASEB J. 17:1972-4 (2003), and International Patent Application WO 2004/003565.
MEM (a medium enriched in amino acids and vitamins, catalog no. 1-31F24-I) and Medium 199 (M199, catalog no. 1-21F22-I) with Earle's Balanced Salts, without phenol red, were purchased from Bioconcept. Fetal Calf Serum was obtained from PAA Laboratories. Basic fibroblast growth factor and epidermal growth factor were purchased from PeproTech. Penicillin-streptomycin-glutamine mix, L-buthionine (S,R)-sulfoximine, and insulin from bovine pancreas were purchased from Sigma. Calcein AM was purchased from Molecular Probes. […]
100 μL of PBS containing 1.2 μM Calcein AM were then added to each well. […] After that time the PBS was discarded, the plate gently tapped on a paper towel and fluorescence (excitation/emission wavelengths of 485 nm and 525 nm, respectively) was read on a Gemini fluorescence reader. […]

[3] = in vivo; details: rat; for NOAEL: female
Protocol: as §1
The starting dose can be estimated based on the United States Food and Drug Administration guidelines titled “Estimating the Maximum Safe Starting Dose in Initial Clinical Trials for Therapeutics in Adult Healthy Volunteers” (July 2005) as well as the International Conference on Harmonisation of Technical Requirements for Registration of Pharmaceuticals for Human Use (ICH) guidelines titled “Guidance on Non-clinical Safety Studies for the Conduct of Human Clinical Trials and Marketing Authorization for Pharmaceuticals” (July 2008). Per ICH guidelines, predicted exposures from the starting dose should not exceed 1/50th the NOAEL (No-Adverse-Observed-Effect-Level) in the more sensitive species on a mg/m^2 basis. Following a single oral dose of alpha-tocotrienol quinone, the NOAEL was established to be 500 mg/kg for the female rat, i.e. 3,000 mg/m2. This dosage would be equivalent to 81 mg/kg in an adult human. 1/50th of 81 mg/kg is 1.6 mg/kg, i.e. 110 mg for a 70 kg adult, or 16 mg for a 10 kg child. This dose can be administered once, twice, or three times daily.

[4] = Animal study of alpha-tocotrienol quinone administration: pharmacokinetics in rats; details: rat, in vivo, 10 mg/kg
Protocol: as §1

CC(C)=CCC/C(C)=C/CC/C(C)=C/CCC(C)(O)CCC1=C(C)C(=O)C(C)=C(C)C1=O (stereo not drawn) [Alpha-tocotrienol quinone]
Cmax [1]: 442 ng/mL
Tmax [1]: 2.8 h
bioavailability [1]: ~16%
half-life [1]: 7.6 h
EC50 [2]: 28 nM
NOAEL [3]: 81 mg/kg
NOAEL ([3]; po): 500 mg/kg
dose at which safe when given acutely [3]: up to 2000 mg/kg
NOAEL on body surface basis ([3]; po): 3,000 mg/m2
Cmax [4]: 931 ng/mL
Tmax [4]: 3.5 h
bioavailability [4]: ~90%
half-life [4]: 3.5 h
